From ChEMBL document CHEMBL4402608 (J Med Chem, 2020) come the findings set out here.

Bounds are passed on as bounds.

The IC50 is the concentration that gives 50% inhibition. In general, EC50 refers to the concentration at which the effect is half-maximal.

Holding throughout (format): cell-based
Assay [1] has as its target T1, D(2) dopamine receptor (Homo sapiens, UniProt P14416). Nature of the assay: Antagonist activity at human D2R expressed in CHOK1 cells assessed as inhibition of dopamine-induced beta-arrestin recruitment measured after 120 mins by beta-galactosidase based PathHunter assay. (In general: Arrestin recruitment assays detect the binding of arrestin to an activated receptor.)

A further assay addresses D(3) dopamine receptor (Homo sapiens, UniProt P35462). Nature of the assay: Agonist activity at human D3R expressed in CHOK1 cells assessed as induction of beta-arrestin recruitment measured after 90 mins by beta-galactosidase based PathHunter assay.
In assay [2] the target is T1, D(2) dopamine receptor. Description: Agonist activity at human D2R expressed in CHOK1 cells assessed as induction of beta-arrestin recruitment measured after 90 mins by beta-galactosidase based PathHunter assay.

On to `COc1ccc(OCCN2CCN(C(=O)c3nc4ccccc4[nH]3)CC2)cc1`, for which the IC50 at D(2) dopamine receptor [1] (read-out: IC50) was greater than 50000 nM. Besides, the values for the EC50 on D(3) dopamine receptor (read-out: EC50) and on D(2) dopamine receptor [2] were 192 nM and “Not Active”, respectively.
With `COc1ccc(OCCN2CCN(C(=O)c3ccc(OC)cc3)C(C)C2)cc1` (configuration not stated), on D(2) dopamine receptor [1] (read-out: IC50), the IC50 is greater than 100000 nM. Also, at D(2) dopamine receptor [2] (read-out: EC50), the EC50 was 4200 nM.
In the case of `COc1ccc(OCCN2CCN(C(=O)c3cc4c(Cl)cccc4[nH]3)CC2)cc1`, the IC50 at D(2) dopamine receptor [1] (read-out: IC50) was greater than 100000 nM. Moreover, the figures for the EC50 at D(3) dopamine receptor (read-out: EC50) and on D(2) dopamine receptor [2] (read-out: EC50) were 160 nM and 7100 nM, respectively.
As for `COc1ccc(C(=O)N2CCN(CCOc3ccccc3OC)CC2)cc1`, the EC50 on D(3) dopamine receptor (read-out: EC50) was found to be 278 nM.
Take `COc1ccc(OCCN2CCN(C(=O)c3cc4ccccc4[nH]3)CC2)c(Cl)c1`: the IC50 on D(2) dopamine receptor [1] (read-out: IC50) was greater than 10000 nM. Besides, the EC50 was 41 nM at D(3) dopamine receptor (read-out: EC50) and “Not Active” at D(2) dopamine receptor [2].
As for `COc1ccc2cc(C(=O)N3CCN(CCOc4cccnc4)CC3)[nH]c2c1`, on D(3) dopamine receptor (read-out: EC50), the EC50 was determined as 6.4 nM.
With `COc1ccc(OCCN2CCN(C(=O)C3CCCCC3)CC2)cc1`, the IC50 at D(2) dopamine receptor [1] (read-out: IC50) was greater than 50000 nM. The EC50 at D(3) dopamine receptor (read-out: EC50) was greater than 50000 nM; at D(2) dopamine receptor [2] it was “Not Active”.
Turning to `COc1ccc(OCCN2CCN(C(=O)c3[nH]c4ccccc4c3C)CC2)cc1`, the IC50 at D(2) dopamine receptor [1] (read-out: IC50) was greater than 100000 nM. The EC50 at D(3) dopamine receptor (read-out: EC50) was 1900 nM; on D(2) dopamine receptor [2] (read-out: EC50), 4400 nM.
For the compound `COc1ccc(OCCN2CCN(C(=O)c3cc4ccc(Cl)cc4[nH]3)CC2)cc1`, the EC50 on D(3) dopamine receptor (read-out: EC50) is 225 nM.
As to `O=C(c1cc2ccccc2[nH]1)N1CCN(CCOc2cccnc2)CC1`, the IC50 result on D(2) dopamine receptor [1] was “Not Active”. The EC50 on D(3) dopamine receptor (read-out: EC50) amounted to 7 nM; on D(2) dopamine receptor [2] (read-out: EC50), 570 nM.
Take `Cc1ccc(OCCN2CCN(C(=O)c3cc4ccccc4[nH]3)CC2)cc1Cl`: the IC50 entry at D(2) dopamine receptor [1] is “Not Active”. For the same compound, the values for the EC50 at D(3) dopamine receptor (read-out: EC50) and on D(2) dopamine receptor [2] were 997 nM and “Not Active”, respectively.
In the case of `COc1ccc(OCCN2CCN(C(=O)c3cc4c(OC)cccc4[nH]3)CC2)cc1`, on D(2) dopamine receptor [1] (read-out: IC50), the IC50 is greater than 100000 nM. The EC50 on D(2) dopamine receptor [2] (read-out: EC50) was 5200 nM.
With `CSc1ccc(OCCN2CCN(C(=O)c3cc4ccccc4[nH]3)CC2)cc1`, the IC50 on D(2) dopamine receptor [1] (read-out: IC50) was greater than 100000 nM. Besides, the values for the EC50 at D(3) dopamine receptor (read-out: EC50) and on D(2) dopamine receptor [2] were 630 nM and “Not Active”, respectively.
As for `Cc1cccc2cc(C(=O)N3CCN(CCOc4cccnc4)CC3)[nH]c12`, on D(3) dopamine receptor (read-out: EC50), the EC50 was determined as 25.7 nM.
For the compound `COc1ccc(C(=O)N2CCN(CCOc3ccccc3)CC2)cc1`, the 50% inhibitory concentration (IC50) on D(2) dopamine receptor [1] (read-out: IC50) was greater than 100000 nM. For the same compound, on D(2) dopamine receptor [2] (read-out: EC50), the EC50 is 2300 nM.
Turning to `COc1ccc(OCCN2CCN(C(=O)c3cc4ccccc4s3)CC2)cc1`, the concentration giving a half-maximal response (EC50) at D(3) dopamine receptor (read-out: EC50) worked out at 3300 nM.
Still for that read-out and setting: as for `Cc1cc(OCCN2CCN(C(=O)c3cc4ccccc4[nH]3)CC2)ccc1Cl`, the figure is 114 nM; as for `COc1cccc(OCCN2CCN(C(=O)c3nc4ccccc4[nH]3)CC2)c1`, 285 nM.
Consider `O=C(c1cc2ccc(Cl)cc2[nH]1)N1CCN(CCOc2cccnc2)CC1`, for which, on D(2) dopamine receptor [1], the IC50 entry was “Not Active”. Moreover, the EC50 on D(2) dopamine receptor [2] (read-out: EC50) turned out to be 183 nM.
For `O=C(c1cc2ccccc2[nH]1)N1CCN(CCOc2ccc3[nH]ccc3c2)CC1`, at D(3) dopamine receptor (read-out: EC50), the EC50 was determined as 60.9 nM.
In the case of `COc1ccc(OCCN2CCN(C(=O)c3ccc4[nH]ccc4c3)CC2)cc1`, at D(2) dopamine receptor [1] (read-out: IC50), the IC50 stood at 4600 nM. Also, at D(2) dopamine receptor [2] (read-out: EC50), the EC50 was found to be 2500 nM.
In the case of `COc1ccc(OCC(C)N2CCN(C(=O)c3ccc(OC)cc3)CC2)cc1` (racemic), the IC50 at D(2) dopamine receptor [1] (read-out: IC50) was greater than 100000 nM. At D(2) dopamine receptor [2], the EC50 result was “Not Active”.
As to `O=C(c1cc2ccccc2[nH]1)N1CCN(CCOc2ccc([N+](=O)[O-])cc2)CC1`, the IC50 entry on D(2) dopamine receptor [1] was “Not Active”. At D(2) dopamine receptor [2], the EC50 result is given as “Not Active”.
In the case of `Cc1cccc2[nH]c(C(=O)N3CCN(CCOc4cccnc4)CC3)cc12`, the IC50 entry at D(2) dopamine receptor [1] is recorded as “Not Active”. In addition, the EC50 on D(2) dopamine receptor [2] (read-out: EC50) was determined as 180 nM.
As to `O=C(c1cc2ccccc2s1)N1CCN(CCOc2cccnc2)CC1`, the EC50 at D(3) dopamine receptor (read-out: EC50) came out at 13.3 nM.
`O=C(c1cc2ccccc2[nH]1)N1CCN(CCOc2ccc(Br)cc2)CC1`: the IC50 at D(2) dopamine receptor [1] (read-out: IC50) is greater than 100000 nM. In addition, the EC50 entry at D(2) dopamine receptor [2] is reported as “Not Active”.
Regarding `O=C(c1cc2cccc(Cl)c2[nH]1)N1CCN(CCOc2cccnc2)CC1`, the IC50 entry at D(2) dopamine receptor [1] is on record as “Not Active”. For the same compound, the EC50 on D(2) dopamine receptor [2] (read-out: EC50) was 617 nM.
Regarding `COc1ccc(C(=O)N2CCN(CCOc3cccc(OC)c3)CC2)cc1`, the EC50 at D(3) dopamine receptor (read-out: EC50) was 98 nM.
For the compound `COc1ccc(OCCCN2CCN(C(=O)c3cc4ccccc4[nH]3)CC2)cc1`, the EC50 result at D(3) dopamine receptor was “Not Active”.
For the compound `O=C(c1n[nH]c2ccccc12)N1CCN(CCOc2cccnc2)CC1`, the IC50 entry on D(2) dopamine receptor [1] is reported as “Not Active”. In addition, the EC50 at D(2) dopamine receptor [2] (read-out: EC50) came to 4100 nM.
Consider `COc1ccc(OCCN2CCN(C(=O)c3cc4cc(Cl)ccc4[nH]3)CC2)cc1`, for which the IC50 result at D(2) dopamine receptor [1] is “Not Active”. In addition, at D(2) dopamine receptor [2], the EC50 entry is recorded as “Not Active”.
Regarding `COc1ccc2[nH]c(C(=O)N3CCN(CCOc4cccnc4)CC3)cc2c1`, the IC50 entry at D(2) dopamine receptor [1] was “Not Active”. The EC50 at D(2) dopamine receptor [2] (read-out: EC50) stood at 2600 nM.
On to `COc1ccc(OCCN(C)CCN(C)C(=O)c2ccc(OC)cc2)cc1`, for which the EC50 entry at D(3) dopamine receptor is listed as “Not Active”.
